In patent publication US10005792B2, “Aminoindane-, aminotetrahydronaphthalene- and aminobenzocyclobutane-derived PRMT5-inhibitors” (CTXT PTY LTD, priority 2014, dated 2018) one finds IC50 data, which are given here for six compounds.

pIC50: −log10 of the molar value.

The pIC50 is the negative decadic logarithm of the IC50, by convention in mol/L. Low readings indicate a high IC50, high ones a low IC50. As usually defined, the IC50 is the concentration that inhibits the measured activity by half. High values mean lower potency, low ones higher potency.

Experiment [1] addresses T1, Full-length PRMT5 enzyme co-expressed with MEP50 (Homo sapiens (Human), UniProt O14744). Kind of experiment: PRMT5 Biochemical Assay. The conditions noted are these: 200 nM histone H4 derived peptide substrate, 1 μM S-Adenosyl methionine, 4 hours at 37° C, Transcreener EPIGEN fluorescence polarisation.
For experiment [2], the system named is symmetrical dimethylation of arginine (Di-Methyl Histone H4 Arginine 3) in cell line TE11. As to the kind of experiment: Revised PRMT5 Biomarker Assay. As to conditions: Homo sapiens, TE-11; TE11 cells, 72 hours incubation, immunofluorescence, corrected for cell number (Hoechst 33342), plate reader based. The protocol:
(§1) Compounds of the invention may be tested for potency to inhibit symmetrical dimethylation of arginine in the following assay:
The cell line TE11 was seeded at a density of 6,000 cells per well in 96 well optical quality tissue culture plates in DME medium and 10% foetal bovine serum, and allowed to adhere for 5 hours under standard culture conditions (37 degree Celsius, 5% CO2). Compound dilutions prepared in DMSO were added to the medium, with negative control wells reserved for treatment with DMSO only and positive controls receiving a potent PRMT5 inhibitor compound at 1 μM concentration. After incubation for 72 hours, the cells were fixed with 3.7% formaldehyde in PBS for 30 minutes at room temperature, washed with phosphate buffer saline and blocked with Odyssey blocking buffer (LI-COR, Lincoln, Nebr.). Rabbit anti-Di-Methyl Histone H4 Arginine 3 specific antibody (Epigentek) in Odyssey blocking buffer was added and incubated for 14 hours at 4 degree Celsius. After washing, anti-rabbit secondary antibody labelled with Alexa647 dye (LifeTechnologies) and Hoechst 33342 (1 μg/mL, SigmaAldrich) were added for 1 hour incubation. Plates were washed and read on a PerkinElmer Envision 2103 in fluorescence intensity scanning mode (24 scans across the well area). The methylation level information was corrected for the number of cells as expressed by the Hoechst 33342 stain, converted to percent inhibition relative to controls on the same plate and the data fitted against a four-parameter logistic model to determine the 50% inhibitory concentration (IC50 plate-reader based). Alternatively, the plates were imaged on a PerkinElmer Phenix high content imaging platform. Using a Columbus image analysis pipeline, individual nuclei were located by Hoechst 33342 stain and the methylation level was calculated from the Alexa647-related intensity in the same area. The resulting mean intensity per cell was directly converted to percent inhibition as outlined above (IC50, imager based)).

Experiment [3] deals with symmetrical dimethylation of arginine (Di-Methyl Histone H4R3) in cell line TE11. As to the kind of experiment: PRMT5 Biomarker Assay. The class given is cell-based. As to conditions: Homo sapiens, TE-11; TE11 cells, 72 h incubation, EpiQuik Global Di-Methyl Histone H4R3 ELISA, corrected for total protein. The protocol:
as §1
The cell line TE11 was seeded at a density of 12,000 cells per well in 96 well tissue culture plates in DME medium and 10% foetal bovine serum, and allowed to adhere overnight under standard culture conditions (37° C., 5% CO2). Compound dilutions prepared in DMSO were added to the medium, with negative control wells reserved for treatment with DMSO only and positive controls receiving a potent PRMT5 inhibitor. The concentration of the inhibitor had been previously determined to give maximum inhibition of the methylation. After incubation for 72 h, cells were washed twice in ice-cold PBS, lysed in lysis buffer (20 mM Tris pH 7.4, 135 mM NaCl, 1.5 mM MgCl2, 1 mM EGTA, 10% glycerol and 1% Triton-X100), centrifuged at 15,000×g and the supernatants collected for subsequent analysis. The methylation level was determined using the EpiQuik™ Global Di-Methyl Histone H4R3 Quantification ELISA Kit (Epigentek, Farmingdale, N.Y.) as per the manufacturer's recommendations; in parallel the total protein amount in the lysate was quantified using a Lowry protein assay. The methylation level was corrected for the total protein amount of each sample, normalised to the controls, and the data fitted against a four-parameter logistic model to determine the 50% inhibitory concentration (IC50).
(ELISA stands for enzyme-linked immunosorbent assay.)

For experiment [4], the target named is T1, Full-length PRMT5 enzyme co-expressed with MEP50. As to the kind of experiment: Revised PRMT5 Biochemical Assay. As to conditions: 1 μM histone H4 derived peptide substrate, 1 μM S-Adenosyl methionine, 4 hours at 37 degree Celsius, Transcreener EPIGEN fluorescence polarisation. The method, boiled down: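 Full-length human PRMT5 co-expressed with His-MEP50 in insect cells (15 ng/reaction), 1 μM H4-derived peptide and 1 μM SAM in PBS/0.01% Tween-20/egg albumin/1 mM DTT, 4 h at 37 °C. SAH formation read by Transcreener EPIGEN fluorescence polarisation after 90 min detection. IC50 from four-parameter fit of plate-normalised % inhibition.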
On the technique in general: In fluorescence polarisation assays a small probe gives low polarisation when free and higher when bound to something large.

T1 sequence (O14744 whole entry): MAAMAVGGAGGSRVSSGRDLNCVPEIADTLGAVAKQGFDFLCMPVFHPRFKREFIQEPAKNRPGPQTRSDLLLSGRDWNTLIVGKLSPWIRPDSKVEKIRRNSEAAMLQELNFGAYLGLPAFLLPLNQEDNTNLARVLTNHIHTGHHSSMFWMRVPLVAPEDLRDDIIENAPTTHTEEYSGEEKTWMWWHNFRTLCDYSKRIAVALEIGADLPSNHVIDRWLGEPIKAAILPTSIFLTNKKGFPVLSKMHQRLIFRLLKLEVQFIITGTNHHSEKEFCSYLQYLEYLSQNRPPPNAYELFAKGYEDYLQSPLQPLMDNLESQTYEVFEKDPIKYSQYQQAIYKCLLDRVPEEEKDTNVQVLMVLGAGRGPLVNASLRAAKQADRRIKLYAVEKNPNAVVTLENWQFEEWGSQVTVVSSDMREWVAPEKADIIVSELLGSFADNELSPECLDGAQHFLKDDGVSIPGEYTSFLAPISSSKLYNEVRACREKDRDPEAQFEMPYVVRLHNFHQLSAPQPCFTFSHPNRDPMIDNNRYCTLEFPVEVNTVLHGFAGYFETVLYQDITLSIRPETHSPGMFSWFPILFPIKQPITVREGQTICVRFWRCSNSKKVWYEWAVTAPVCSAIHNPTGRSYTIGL
T1 sequence (Q9BQA1 whole entry partner): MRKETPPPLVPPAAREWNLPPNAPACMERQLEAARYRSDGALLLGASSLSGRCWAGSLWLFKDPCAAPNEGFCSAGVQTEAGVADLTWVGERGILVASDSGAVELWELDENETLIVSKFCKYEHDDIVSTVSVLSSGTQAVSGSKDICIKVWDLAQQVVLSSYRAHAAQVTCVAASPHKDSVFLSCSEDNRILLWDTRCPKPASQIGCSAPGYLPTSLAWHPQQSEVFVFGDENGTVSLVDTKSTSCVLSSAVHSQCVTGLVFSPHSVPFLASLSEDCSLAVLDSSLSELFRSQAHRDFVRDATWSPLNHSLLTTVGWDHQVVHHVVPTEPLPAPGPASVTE

Turning to `O=C(NC[C@@H](O)CNC1Cc2ccccc2C1)c1ccc(C(=O)N2CCOCC2)cc1` [Compound 15, (S)-N-(3-((2,3-Dihydro-1H-inden-2-yl)amino)-2-hydroxypropyl)-4-(morpholine-4-carbonyl)benzamide], the results for the pIC50 in experiment [1] and in experiment [3] were 6.66 and 7.52, respectively. In experiment [2], this compound gave an IC50 of 0.025 µM.
For `O=C(NCC(O)CNC1Cc2ccccc2C1)c1ccc(C(=O)N2CCCCC2)cc1` (centres unmarked) [Compound 22, N-(3-((2,3-Dihydro-1H-inden-2-yl)amino)-2-hydroxypropyl)-4-(piperidine-1-carbonyl)benzamide] the same measures were 6.77, 7.74 and 0.106 µM.
Consider `CC(=O)N1CCC(Nc2cc(C(=O)NCC(O)CNC3Cc4ccccc4C3)ccn2)CC1` (centres unmarked) [Compound 35, 2-((1-Acetylpiperidin-4-yl)amino)-N-(3-((2,3-dihydro-1H-inden-2-yl)amino)-2-hydroxypropyl)isonicotinamide], for which the pIC50 is 7.30 in experiment [1], 6.81 in experiment [4] and 8.10 in experiment [3]. The compound further displayed an IC50 in experiment [2] of 0.04 µM.
For `C[C@H]1COCCN1C(=O)c1ccc(C(=O)NC[C@@H](O)CNC2Cc3ccccc3C2)cc1` [Compound 38, N—((S)-3-((2,3-Dihydro-1H-inden-2-yl)amino)-2-hydroxypropyl)-4-((S)-3-methylmorpholine-4-carbonyl)benzamide] the same measures were 6.68, 6.51, 7.96 and 0.053 µM.
As for `O=C(NCC(O)CNC1Cc2ccccc2C1)c1ccc(C(=O)N2C3CCC2COC3)cc1` (centres unmarked) [Compound 40, 4-(3-Oxa-8-azabicyclo[3.2.1]octane-8-carbonyl)-N-(3-((2,3-dihydro-1H-inden-2-yl)amino)-2-hydroxypropyl)benzamide], the pIC50 in experiment [1] was 7.24; in experiment [3], 8.70. The compound further yielded an IC50 in experiment [2] of 0.021 µM.
As for `COc1cc(C(=O)N2CCOCC2)ccc1C(=O)NC[C@@H](O)CNC1Cc2ccccc2C1` [Compound 98, (S)-N-(3-((2,3-dihydro-1H-inden-2-yl)amino)-2-hydroxypropyl)-2-methoxy-4-(morpholine-4-carbonyl)benzamide], the IC50 in experiment [2] is 0.361 µM. Also, the pIC50 is 6.55 in experiment [4] and 8.15 in experiment [3].
